Laboratory results reported in patent US12376590B2, “Compositions comprising pyridine carboxylate herbicides and azole carboxylate safeners” (Corteva Agriscience LLC, priority 2018, dated 2025).

Tests used:
Assay in all cases: Greenhouse postemergence herbicidal safening trial, visual injury after 20-22 d
Settings in all cases: applied alone
pigweed (AMARE) = format: in vivo, Amaranthus retroflexus
From the text: (§1) Greenhouse Trial Methodology—Evaluation of Postemergence Herbicidal Safening in Crops
(§2) Seeds of the desired test plant species were planted in a 90:10% v/v (volume/volume) mixture of PRO-MIX® BX (Premier Tech Horticulture, Quakertown, PA, USA) and PROFILE® GREENS GRADE™ (Profile Products LLC, Buffalo Grove, IL, USA) planting mixture, which typically has a pH of 5.2 to 6.2 and an organic matter content of at least 50 percent, in plastic pots with a surface area of 103.2 square centimeters (cm^2). When required to ensure good germination and healthy plants, a fungicide treatment and/or other chemical or physical treatment was applied. The plants were grown for 7-36 days (d) in a greenhouse with an approximate 14-hour (h) photo-period which was maintained at about 23° C. during the day and 22° C. during the night. Nutrients and water were added on a regular basis and supplemental lighting was provided with overhead metal halide 1000-Watt lamps as necessary. The plants were employed for testing when they reached the second or third true leaf stage.
(§3) Emulsifiable concentrates of each of each pyridine carboxylate herbicide (Compound A or Compound B) were prepared at 100 grams acid equivalent per liter (g ae/L). An aliquot of each emulsifiable concentrate was placed in a 25 mL glass vial and diluted with an aqueous mixture of 1.25% (v/v) ACTIROB® B esterified rapeseed oil (Bayer Crop Science, Research Triangle Park, NC, USA) or MSO® Concentrate with LECI-TECH® methylated soybean oil (Loveland Products, Loveland, CO, USA) to obtain concentrated stock solutions at the highest application rate for each herbicide, based upon a 12 milliliter (mL) application volume at a rate of 187 liters per hectare (L/ha). The concentrated stock solutions were further diluted with an aqueous mixture of 1.25% v/v ACTIROB® B or MSO® Concentrate with LECI-TECH® to obtain stock solutions at reduced application rates for each herbicide. Spray solutions of the herbicide combinations (Compound A or Compound B plus safener) were prepared by adding weighed amounts or aliquots of the azole carboxylate safener to the stock solutions of Compound A or Compound B to form 12-mL spray solutions in two-way combinations.
(§4) The spray solutions were applied to the plant material with an overhead Mandel track sprayer equipped with 8002E nozzles calibrated to deliver 187 L/ha over an application area of 0.503 square meters (m^2) at a spray height of 18 inches (43 centimeters (cm)) above the average plant canopy. Control plants were sprayed in the same manner with the solvent blank. All herbicide (component a) application rates are given as “g ae/ha” and all safener (component b) application rates are given as “g ai/ha.”
(§5) The treated plants and control plants were placed in a greenhouse as described above and watered by sub-irrigation to prevent wash-off of the test compounds. After 20-22 d, the condition of the test plants as compared with that of the control plants was determined visually and scored on a scale of 0 to 100 percent where 0 corresponds to no injury and 100 corresponds to complete kill.

[1] = tested on: ivyleaf morningglory (IPOHE); format: in vivo, Ipomoea hederacea
From the text: as §1, §2, §3, §4, §5

Johnson grass (SORHA) = format: in vivo, Sorghum halepense
From the text: as §1, §2, §3, §4, §5

Canada horseweed (ERICA) = format: in vivo, Erigeron canadensis
From the text: as §1, §2, §3, §4, §5

[2] = tested on: Chinese sprangletop (LEFCH); format: in vivo, Leptochloa chinensis
From the text: as §1, §2, §3, §4, §5

wild buckwheat (POLCO) = format: in vivo, Polygonum convolvulus
From the text: as §1, §2, §3, §4, §5

common rice (ORYSA) = format: in vivo, Oryza sativa
From the text: as §1, §2, §3, §4, §5

maize (ZEAMX) = format: in vivo, Zea mays
From the text: as §1, §2, §3, §4, §5

soybean (GLXMA) = format: in vivo, Glycine max
From the text: as §1, §2, §3, §4, §5

nutsedge (CYPES) = format: in vivo, Cyperus esculentus
From the text: as §1, §2, §3, §4, §5

barnyardgrass (ECHCG) = format: in vivo, Echinochloa crus-galli
From the text: as §1, §2, §3, §4, §5

common sunflower (HELAN) = format: in vivo, Helianthus annuus
From the text: as §1, §2, §3, §4, §5

kochia (KCHSC) = format: in vivo, Kochia scoparia
From the text: as §1, §2, §3, §4, §5

[3] = tested on: herbicide-resistant kochia (KCHSC-R); format: in vivo, Kochia scoparia
From the text: as §1, §2, §3, §4, §5

large crabgrass (DIGSA) = format: in vivo, Digitaria sanguinalis
From the text: as §1, §2, §3, §4, §5

wild oat (AVEFA) = format: in vivo, Avena fatua
From the text: as §1, §2, §3, §4, §5

blackgrass (ALOMY) = format: in vivo, Alopecurus myosuroides
From the text: as §1, §2, §3, §4, §5

velvetleaf (ABUTH) = format: in vivo, Abutilon theophrasti
From the text: as §1, §2, §3, §4, §5

Italian ryegrass (LOLMU) = format: in vivo, Lolium multiflorum
From the text: as §1, §2, §3, §4, §5

Canada thistle (CIRAR) = format: in vivo, Cirsium arvense
From the text: as §1, §2, §3, §4, §5

giant foxtail (SETFA) = format: in vivo, Setaria faberi
From the text: as §1, §2, §3, §4, §5

winter rape (BRSNW) = format: in vivo, Brassica napus
From the text: as §1, §2, §3, §4, §5

wild pansy (VIOTR) = format: in vivo, Viola tricolor
From the text: as §1, §2, §3, §4, §5

winter wheat (TRZAW) = format: in vivo, Triticum aestivum
From the text: as §1, §2, §3, §4, §5

[4] = tested on: common lambsquarters (CHEAL); format: in vivo, Chenopodium album L.
From the text: as §1, §2, §3, §4, §5

Russian thistle (SASKR) = format: in vivo, Salsola kali
From the text: as §1, §2, §3, §4, §5

spring barley (HORVS) = format: in vivo, Hordeum vulgare
From the text: as §1, §2, §3, §4, §5

wild chamomile (MATCH) = format: in vivo, Matricaria chamomilla
From the text: as §1, §2, §3, §4, §5

spring wheat (TRZAS) = format: in vivo, Triticum aestivum
From the text: as §1, §2, §3, §4, §5

Measured: % visual injury Ob

O=C(O)c1nc(C(Cl)(Cl)Cl)n(-c2ccc(Cl)cc2Cl)n1 [Fenchlorazole, fenchlorazole]
0%: pigweed (AMARE); 20 g/ha | pigweed (AMARE); 40 g/ha | pigweed (AMARE); 80 g/ha | [1]; 20 g/ha | [1]; 40 g/ha | [1]; 80 g/ha | Johnson grass (SORHA); 20 g/ha | Johnson grass (SORHA); 40 g/ha | Johnson grass (SORHA); 80 g/ha | Canada horseweed (ERICA); 20 g/ha | Canada horseweed (ERICA); 40 g/ha | Canada horseweed (ERICA); 80 g/ha | [2]; 20 g/ha | [2]; 40 g/ha | [2]; 80 g/ha | wild buckwheat (POLCO); 20 g/ha | wild buckwheat (POLCO); 40 g/ha | wild buckwheat (POLCO); 80 g/ha | common rice (ORYSA); 20 g/ha | common rice (ORYSA); 40 g/ha | common rice (ORYSA); 80 g/ha | maize (ZEAMX); 20 g/ha | maize (ZEAMX); 40 g/ha | maize (ZEAMX); 80 g/ha | soybean (GLXMA); 20 g/ha | soybean (GLXMA); 40 g/ha | soybean (GLXMA); 80 g/ha | nutsedge (CYPES); 20 g/ha | nutsedge (CYPES); 40 g/ha | nutsedge (CYPES); 80 g/ha | barnyardgrass (ECHCG); 20 g/ha | barnyardgrass (ECHCG); 40 g/ha | barnyardgrass (ECHCG); 80 g/ha | common sunflower (HELAN); 20 g/ha | common sunflower (HELAN); 40 g/ha | common sunflower (HELAN); 80 g/ha | kochia (KCHSC); 20 g/ha | kochia (KCHSC); 40 g/ha | kochia (KCHSC); 80 g/ha | [3]; 20 g/ha | [3]; 40 g/ha | [3]; 80 g/ha | large crabgrass (DIGSA); 20 g/ha | large crabgrass (DIGSA); 40 g/ha | large crabgrass (DIGSA); 80 g/ha | wild oat (AVEFA); 20 g/ha | wild oat (AVEFA); 40 g/ha | wild oat (AVEFA); 80 g/ha | blackgrass (ALOMY); 20 g/ha | blackgrass (ALOMY); 40 g/ha | blackgrass (ALOMY); 80 g/ha | velvetleaf (ABUTH); 20 g/ha | velvetleaf (ABUTH); 40 g/ha | velvetleaf (ABUTH); 80 g/ha | Italian ryegrass (LOLMU); 20 g/ha | Italian ryegrass (LOLMU); 40 g/ha | Italian ryegrass (LOLMU); 80 g/ha | Canada thistle (CIRAR); 20 g/ha | Canada thistle (CIRAR); 40 g/ha | Canada thistle (CIRAR); 80 g/ha | giant foxtail (SETFA); 20 g/ha | giant foxtail (SETFA); 40 g/ha | giant foxtail (SETFA); 80 g/ha | winter rape (BRSNW); 20 g/ha | winter rape (BRSNW); 40 g/ha | winter rape (BRSNW); 80 g/ha | wild pansy (VIOTR); 20 g/ha | wild pansy (VIOTR); 40 g/ha | wild pansy (VIOTR); 80 g/ha | winter wheat (TRZAW); 20 g/ha | winter wheat (TRZAW); 40 g/ha | winter wheat (TRZAW); 80 g/ha | [4]; 20 g/ha | [4]; 40 g/ha | [4]; 80 g/ha

CCOC(=O)c1nc(C(Cl)(Cl)Cl)n(-c2ccc(Cl)cc2Cl)n1 [Fenchlorazole-ethyl, fenchlorazole-ethyl]
0%: Russian thistle (SASKR); 10 g/ha | Russian thistle (SASKR); 20 g/ha | Russian thistle (SASKR); 40 g/ha | spring barley (HORVS); 10 g/ha | spring barley (HORVS); 20 g/ha | spring barley (HORVS); 40 g/ha | winter rape (BRSNW); 10 g/ha | winter rape (BRSNW); 20 g/ha | winter rape (BRSNW); 40 g/ha | wild chamomile (MATCH); 10 g/ha | wild chamomile (MATCH); 20 g/ha | wild chamomile (MATCH); 40 g/ha | spring wheat (TRZAS); 10 g/ha | spring wheat (TRZAS); 20 g/ha | spring wheat (TRZAS); 40 g/ha
